The text below walks through data of ChEMBL document CHEMBL1146890, “Arylaminoethyl carbamates as a novel series of potent and selective cathepsin S inhibitors” (Bioorg Med Chem Lett, 2006).

Holding throughout (format): ADME, organism-based
Data set [1] is described as follows: Half life in Wistar rat at 3 mg/kg, iv. As to conditions: in vivo. Also noted: dose 3 mg/kg, route intravenous.
The nature of data set [2]: Half life in Wistar rat at 10 mg/kg, po. Also noted: dose 10 mg/kg, route oral. Particulars: in vivo.
The nature of data set [3]: AUC in Wistar rat at 10 mg/kg, po. As to conditions: plasma. Details: dose 10 mg/kg, route oral.
A short description of data set [4]: Volume of distribution in Wistar rat at 3 mg/kg, iv. Details: dose 3 mg/kg, route intravenous. Particulars: in vivo, read-out: Vdss.
The nature of data set [5]: Cmax in Wistar rat at 10 mg/kg, po. Also noted: dose 10 mg/kg, route oral. As to conditions: in vivo.
The nature of data set [6]: Oral bioavailability in Wistar rat at 10 mg/kg, po. As to conditions: in vivo.
Data set [7] can be described thus: Clearance in Wistar rat at 3 mg/kg, iv. Details: dose 3 mg/kg, route intravenous. Particulars: in vivo.

Usually half-life stands for the time needed for the level to fall by half in the phase considered. A higher half-life goes with slow decline. One may read the AUC as concentration integrated over time. Usually Cmax stands for the maximum level reached in the sampled fluid or tissue. In general, bioavailability refers to the share of a dose that reaches the circulation, judged against a reference dose that is usually intravenous. Broadly, the clearance is the rate of elimination divided by the concentration. For the molecule `C[C@@H](CN1c2ccc(F)cc2CC1(C)C)NC(=O)O[C@@H](CC1CCCCC1)C(=O)N1CCOCC1`, the values for the half-life in data set [1] and in data set [2] were 1.37 h and 1.03 h, respectively. Also, the AUC in data set [3] is 733 ng·h/mL. The Vd in data set [4] was 3.1 L/kg. The molecule further yielded a Cmax in data set [5] of 513 nM. In data set [6], this molecule gave a bioavailability of 23%. For the same molecule, in data set [7], the clearance came out at 52 mL/min/kg.
Turning to `C[C@@H](CN1CC(C)(C)c2cc(F)ccc21)NC(=O)[C@H](CC1CCCCC1)NC(=O)N1CCOCC1`, the half-life in data set [1] came out at 0.717 h; in data set [2], 0.85 h. In data set [3], this molecule showed an area under the curve (AUC) of 133 ng·h/mL. Moreover, the Vd in data set [4] worked out at 1.76 L/kg. In data set [5], this molecule gave a Cmax of 118 nM. The bioavailability in data set [6] worked out at 4%. The molecule also gave a clearance in data set [7] of 52 mL/min/kg.
For `C[C@@H](CN1CC(C)(C)c2cc(F)ccc21)NC(=O)O[C@@H](CC1CCCCC1)C(=O)N1CCOCC1`, the figures for the half-life in data set [1] and in data set [2] were 1.67 h and 1.15 h, respectively. Moreover, the AUC in data set [3] was 1350 ng·h/mL. Moreover, the Vd in data set [4] is 4.1 L/kg. Besides, in data set [5], the highest concentration (Cmax) came to 774 nM. Further, the bioavailability in data set [6] is 42%. Also, the clearance in data set [7] came out at 52 mL/min/kg.
